Patent US12134623B1, “2,16-dioxapentacyclo[7.7.5.01,21.03,8.010,15]henicosa3(8),10,12,14-tetraene-7,20-dione as an antimicrobial compound” (KING FAISAL UNIVERSITY, priority 2023, dated 2024)

Assays:
Assay type in all cases: cell-based
Details in all cases: after 10, 20, 40 and 60 minutes at all dilutions 1:100, 1:200, 1:400, 1:800
Staphylococcus aureus = test: Antimicrobial activity by agar dilution, Staphylococcus aureus
Protocol: (§1) The antibacterial properties of the synthesized compound (of 2,16-dioxapentacyclo[7.7.5.0^1,21.0^3,8.0^10,15]henicosa3(8), 10,12,14-tetraene-7,20-dione) were studied by the method of agar dilution. Test solutions of each compound was prepared in concentration of 1% using dimethylformamide as a solvent. Then they were diluted in physiological solution to obtain the final experimental dilutions of 1:100, 1:200, 1:400, and 1:800. The effect of these substances were compared with furacillin in a controllable study. The testing microbes used were gram positive bacteria Staphylococcus aureus, gram negative bacteria Pseudomonas aeruginosa, Escherichia coli, and Candida albicans fungus. The experiments used for this survey were meat-pentonlu agar (EPA) for cultivation of bacteria and Saburo environment for fungi. Each experiment used 1 mL of test solution on each plate for 500 minutes. Two drops of emulsified with microbes feel were added. All experimental samples were taken from the agar after 10, 20, 40, 60 minutes in the environment on the basis of Patrk planted. Bacteria were cultivated at a temperature of 37° C. for 1 day and the mushroom was kept in a thermostat for […] at a temperature of 28° C. Then results were checked. Those of control and the antimicrobial activity for the synthesized compounds are listed in Table 1 below, with furacillin serving as a reference.

Escherichia coli = test: Antimicrobial activity by agar dilution, Escherichia coli
Protocol: as §1

Pseudomonas aeruginosa = test: Antimicrobial activity by agar dilution, Pseudomonas aeruginosa
Protocol: as §1

Candida albicans = test: Antimicrobial (antifungal) activity by agar dilution, Candida albicans
Protocol: as §1

Measured: inhibition activity compared with the inhibition activity of Furacilin

O=C1CCCC2=C1C1c3ccccc3OC3(CCCC(=O)C13)O2 (stereo not shown) [2,16-dioxapentacyclo[7.7.5.0^1,21.0^3,8.0^10,15]henicosa3(8), 10,12,14-tetraene-7,20-dione]
higher inhibition activity: all assays above
